Tests used:
JAK1 = molecular target: T1, JAK1 (Homo sapiens, UniProt P23458); assay: Biochemical JAK1 kinase assay (LanthaScreen); details: for Ki: read-out: JAK 1 (pKi) (converted)
T1 construct: GST; purchased Life Technologies
Summary of the method: (§1)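 Recombinant GST-tagged JAK enzymes with GFP-STAT1 peptide substrate in 50 mM HEPES pH 7.5, 10 mM MgCl2, 1 mM EGTA, 0.01% Brij-35; compounds pre-incubated 1 h, then ATP added, 1 h reaction at ambient temperature. TR-FRET (Tb-anti-pSTAT1 pTyr701, 520/495 nm) after EDTA stop; IC50 by 4-parameter fit, converted to pKi via Cheng-Prusoff.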

JAK2 = molecular target: T2, JAK2 (Homo sapiens, UniProt O60674); assay: Biochemical JAK2 kinase assay (LanthaScreen); details: for Ki: read-out: JAK 2 (pKi) (converted)
T2 construct: GST; purchased Life Technologies
Summary of the method: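 GST-tagged recombinant JAK2 pre-incubated 1 h at ambient temperature with compound and GFP-STAT1 peptide in HEPES pH 7.5/MgCl2 buffer, then ATP added for a 1 h reaction with 1% DMSO. TR-FRET read after EDTA and Tb-anti-pSTAT1 (pTyr701) addition; IC50 from 4-parameter fit, converted to pKi by Cheng-Prusoff.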

Tyk2 = molecular target: T3, Tyk2 (Homo sapiens, UniProt P29597); assay: Biochemical Tyk2 kinase assay (LanthaScreen); details: for Ki: read-out: Tyk 2 (pKi) (converted)
T3 construct: GST; purchased Life Technologies
Summary of the method: as §1

[1] = test system: IL-2 stimulated pSTAT5 in Tall-1 T cells; assay: Cellular JAK3 potency assay: inhibition of IL-2 stimulated pSTAT5 in Tall-1 T cells; format: cell-based, human; details: for Tall-1 (pIC50): IL-2 stimulated pSTAT5 in Tall-1 T cells; for IC50: Homo sapiens, TALL-1, IL-2 stimulated pSTAT5 in Tall-1 T cells, read-out: Tall-1 (pIC50) (converted)
Summary of the method: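 Tall-1 human T cells (45,000/well) in phenol red-free DMEM with 10% FBS were preincubated with compound 1 h at 37 °C, then stimulated with IL-2 (final 300 ng/ml) for 30 min. Lysate pSTAT5 read by AlphaLisa; IC50 from inhibition curves, reported as pIC50 (mean±SD).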

JAK3 = molecular target: T4, JAK3 (Homo sapiens, UniProt P52333); assay: Biochemical JAK3 kinase assay (LanthaScreen); design: GST; purchased Life Technologies; details: for JAK3 (pKi)-JAK1 (pKi): selectivity: difference of pKi JAK3 and pKi JAK1; for Ki: read-out: JAK 3 (pKi) (converted)
T4 sequence (P52333 1-1124): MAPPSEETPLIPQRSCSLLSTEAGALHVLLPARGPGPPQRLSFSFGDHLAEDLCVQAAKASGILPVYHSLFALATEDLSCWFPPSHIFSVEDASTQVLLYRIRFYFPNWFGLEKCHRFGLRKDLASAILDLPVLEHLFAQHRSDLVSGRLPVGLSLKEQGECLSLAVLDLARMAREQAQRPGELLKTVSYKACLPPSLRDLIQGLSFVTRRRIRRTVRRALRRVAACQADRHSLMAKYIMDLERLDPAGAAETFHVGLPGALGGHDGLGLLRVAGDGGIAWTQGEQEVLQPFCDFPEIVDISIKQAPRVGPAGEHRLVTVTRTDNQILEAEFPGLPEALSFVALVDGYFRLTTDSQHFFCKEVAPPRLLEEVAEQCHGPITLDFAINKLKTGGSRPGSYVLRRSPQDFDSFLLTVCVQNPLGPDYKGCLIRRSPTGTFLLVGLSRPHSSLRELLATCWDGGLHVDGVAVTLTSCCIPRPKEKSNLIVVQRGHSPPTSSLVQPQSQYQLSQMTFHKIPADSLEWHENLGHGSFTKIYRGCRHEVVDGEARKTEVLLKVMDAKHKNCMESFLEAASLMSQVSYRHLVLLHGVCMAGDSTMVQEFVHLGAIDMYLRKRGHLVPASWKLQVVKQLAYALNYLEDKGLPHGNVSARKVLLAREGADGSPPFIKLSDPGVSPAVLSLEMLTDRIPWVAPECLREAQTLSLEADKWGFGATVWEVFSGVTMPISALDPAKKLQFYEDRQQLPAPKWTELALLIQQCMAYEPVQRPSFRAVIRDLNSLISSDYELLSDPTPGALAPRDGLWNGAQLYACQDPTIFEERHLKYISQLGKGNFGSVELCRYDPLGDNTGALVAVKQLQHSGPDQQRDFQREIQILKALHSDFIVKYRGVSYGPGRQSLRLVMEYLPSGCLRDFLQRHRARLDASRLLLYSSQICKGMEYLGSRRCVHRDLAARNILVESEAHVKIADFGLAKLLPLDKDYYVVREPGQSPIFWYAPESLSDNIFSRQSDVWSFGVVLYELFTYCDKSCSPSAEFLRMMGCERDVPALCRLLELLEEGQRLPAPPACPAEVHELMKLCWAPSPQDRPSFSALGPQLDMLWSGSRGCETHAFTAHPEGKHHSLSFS
Summary of the method: as §1

T1 sequence (P23458 whole entry): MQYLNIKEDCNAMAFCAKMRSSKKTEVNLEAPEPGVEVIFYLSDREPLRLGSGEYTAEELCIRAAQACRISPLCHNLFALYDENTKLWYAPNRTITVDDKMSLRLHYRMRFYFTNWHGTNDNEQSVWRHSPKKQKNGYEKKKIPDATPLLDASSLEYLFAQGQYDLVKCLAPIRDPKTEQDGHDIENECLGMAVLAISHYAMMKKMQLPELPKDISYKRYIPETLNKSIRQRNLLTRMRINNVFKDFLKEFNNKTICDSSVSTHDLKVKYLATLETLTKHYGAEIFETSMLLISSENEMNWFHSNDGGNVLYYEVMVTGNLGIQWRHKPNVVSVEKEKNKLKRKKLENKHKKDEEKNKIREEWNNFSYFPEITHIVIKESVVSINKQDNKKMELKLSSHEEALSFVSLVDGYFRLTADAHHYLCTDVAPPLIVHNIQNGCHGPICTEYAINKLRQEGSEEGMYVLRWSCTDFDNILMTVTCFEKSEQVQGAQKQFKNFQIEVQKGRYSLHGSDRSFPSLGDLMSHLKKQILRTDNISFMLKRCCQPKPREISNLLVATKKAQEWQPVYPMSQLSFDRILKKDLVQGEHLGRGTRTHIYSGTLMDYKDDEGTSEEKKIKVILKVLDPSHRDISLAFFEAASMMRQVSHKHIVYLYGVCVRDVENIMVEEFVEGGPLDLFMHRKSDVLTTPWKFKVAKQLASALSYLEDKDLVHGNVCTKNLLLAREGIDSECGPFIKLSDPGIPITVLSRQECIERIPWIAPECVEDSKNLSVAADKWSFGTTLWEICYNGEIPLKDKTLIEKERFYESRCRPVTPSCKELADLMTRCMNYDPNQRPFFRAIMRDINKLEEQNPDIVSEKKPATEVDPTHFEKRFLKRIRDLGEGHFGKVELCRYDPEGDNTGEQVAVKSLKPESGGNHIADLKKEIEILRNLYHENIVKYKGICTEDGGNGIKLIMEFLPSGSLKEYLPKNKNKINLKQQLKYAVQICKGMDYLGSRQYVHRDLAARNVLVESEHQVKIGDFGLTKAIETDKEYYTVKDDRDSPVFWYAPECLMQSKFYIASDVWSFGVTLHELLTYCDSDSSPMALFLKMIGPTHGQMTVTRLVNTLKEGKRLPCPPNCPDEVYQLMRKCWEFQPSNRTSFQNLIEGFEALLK
T3 sequence (P29597 whole entry): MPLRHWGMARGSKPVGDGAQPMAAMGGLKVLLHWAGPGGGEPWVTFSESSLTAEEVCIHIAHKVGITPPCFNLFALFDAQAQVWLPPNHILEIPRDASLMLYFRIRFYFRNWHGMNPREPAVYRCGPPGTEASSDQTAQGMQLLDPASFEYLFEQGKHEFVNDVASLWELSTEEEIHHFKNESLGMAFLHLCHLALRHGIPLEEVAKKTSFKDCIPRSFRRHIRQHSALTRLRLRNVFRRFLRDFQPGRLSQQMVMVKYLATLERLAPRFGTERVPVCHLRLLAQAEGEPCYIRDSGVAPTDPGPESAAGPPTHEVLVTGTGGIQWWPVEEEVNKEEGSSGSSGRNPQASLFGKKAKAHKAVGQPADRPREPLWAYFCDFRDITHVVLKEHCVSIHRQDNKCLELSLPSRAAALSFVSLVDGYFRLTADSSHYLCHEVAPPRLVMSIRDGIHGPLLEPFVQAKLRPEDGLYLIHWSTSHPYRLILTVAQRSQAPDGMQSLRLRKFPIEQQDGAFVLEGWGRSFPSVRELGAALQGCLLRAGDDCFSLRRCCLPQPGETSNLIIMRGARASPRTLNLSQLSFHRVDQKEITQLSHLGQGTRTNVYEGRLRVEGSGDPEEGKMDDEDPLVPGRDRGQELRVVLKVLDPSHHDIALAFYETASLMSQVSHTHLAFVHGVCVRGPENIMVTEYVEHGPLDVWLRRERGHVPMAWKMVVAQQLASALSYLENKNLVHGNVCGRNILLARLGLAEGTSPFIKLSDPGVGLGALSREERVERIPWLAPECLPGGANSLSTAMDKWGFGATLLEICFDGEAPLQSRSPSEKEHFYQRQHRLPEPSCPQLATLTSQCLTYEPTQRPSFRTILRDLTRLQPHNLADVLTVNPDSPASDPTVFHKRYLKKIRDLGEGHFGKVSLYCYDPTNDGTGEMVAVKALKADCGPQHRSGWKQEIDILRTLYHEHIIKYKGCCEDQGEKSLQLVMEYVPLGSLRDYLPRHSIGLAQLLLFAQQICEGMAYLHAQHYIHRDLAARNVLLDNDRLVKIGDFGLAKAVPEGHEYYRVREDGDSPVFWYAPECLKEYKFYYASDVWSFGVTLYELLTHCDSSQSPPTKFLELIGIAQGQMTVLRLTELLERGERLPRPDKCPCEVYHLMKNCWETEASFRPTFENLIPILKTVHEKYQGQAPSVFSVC
T2 sequence (O60674 whole entry): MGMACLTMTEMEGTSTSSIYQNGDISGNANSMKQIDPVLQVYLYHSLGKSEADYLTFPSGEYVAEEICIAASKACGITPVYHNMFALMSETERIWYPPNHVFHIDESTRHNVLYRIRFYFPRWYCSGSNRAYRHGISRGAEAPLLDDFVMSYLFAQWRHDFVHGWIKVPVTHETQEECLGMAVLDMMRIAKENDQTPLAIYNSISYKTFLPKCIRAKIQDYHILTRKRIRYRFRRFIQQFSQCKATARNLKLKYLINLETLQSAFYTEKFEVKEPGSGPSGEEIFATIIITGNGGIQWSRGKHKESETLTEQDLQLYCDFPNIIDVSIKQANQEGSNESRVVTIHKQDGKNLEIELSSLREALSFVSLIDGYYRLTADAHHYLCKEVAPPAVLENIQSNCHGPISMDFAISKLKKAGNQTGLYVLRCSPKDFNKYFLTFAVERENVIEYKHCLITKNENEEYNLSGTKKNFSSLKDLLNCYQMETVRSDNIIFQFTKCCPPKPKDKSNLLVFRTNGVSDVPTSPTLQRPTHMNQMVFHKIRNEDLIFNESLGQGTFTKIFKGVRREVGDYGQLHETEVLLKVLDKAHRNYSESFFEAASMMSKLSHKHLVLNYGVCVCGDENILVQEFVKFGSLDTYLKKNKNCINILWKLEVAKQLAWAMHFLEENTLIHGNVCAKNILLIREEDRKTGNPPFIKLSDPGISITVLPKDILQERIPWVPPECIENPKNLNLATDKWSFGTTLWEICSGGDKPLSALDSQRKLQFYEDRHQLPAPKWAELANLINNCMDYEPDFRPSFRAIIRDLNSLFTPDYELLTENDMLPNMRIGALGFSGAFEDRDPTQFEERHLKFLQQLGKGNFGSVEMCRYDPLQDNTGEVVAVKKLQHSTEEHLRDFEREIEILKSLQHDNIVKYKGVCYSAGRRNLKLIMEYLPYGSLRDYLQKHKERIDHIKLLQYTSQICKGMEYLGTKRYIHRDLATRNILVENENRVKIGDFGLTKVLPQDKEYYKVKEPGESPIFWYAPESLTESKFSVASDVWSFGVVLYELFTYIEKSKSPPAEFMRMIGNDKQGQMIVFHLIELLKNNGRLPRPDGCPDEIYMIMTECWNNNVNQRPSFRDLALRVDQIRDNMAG

Row | SMILES | JAK 1 (pKi) (JAK1) | JAK 2 (pKi) (JAK2) | Tyk 2 (pKi) (Tyk2) | Tall-1 (pIC50) [1] | JAK 3 (pKi) (JAK3) | JAK3 (pKi)-JAK1 (pKi) (JAK3) | Ki (JAK1) | Ki (JAK2) | Ki (Tyk2) | IC50 [1] | Ki (JAK3)
1 | CN(C)C/C=C/C(=O)N1CC(C#N)(COc2nc(-c3ccc(O)c(Cl)c3)cc3[nH]ncc23)C1 [Compound 3-71] | E (a pKi value of 7 or below (Ki of 100 nM or above)) | E (a pKi value of 7 or below (Ki of 100 nM or above)) | E (a pKi value of 7 or below (Ki of 100 nM or above)) | A (a pIC50 value≥7.5 (IC50≤32 nM)) | A (a pKi value≥10 (Ki≤0.1 nM)) | A (a value of 3 or above) | – | – | – | – | –
2 | C=CC(=O)N1CC(COc2cc(-c3ccc(O)c(Cl)c3)cc3[nH]ncc23)(OC)C1 [Compound 3-73] | E (a pKi value of 7 or below (Ki of 100 nM or above)) | E (a pKi value of 7 or below (Ki of 100 nM or above)) | E (a pKi value of 7 or below (Ki of 100 nM or above)) | A (a pIC50 value≥7.5 (IC50≤32 nM)) | A (a pKi value≥10 (Ki≤0.1 nM)) | A (a value of 3 or above) | – | – | – | – | –
3 | C=CC(=O)N1CC(COc2cc(-c3ccc(O)c(F)c3)cc3[nH]ncc23)(OC)C1 [Compound 3-75] | E (a pKi value of 7 or below (Ki of 100 nM or above)) | E (a pKi value of 7 or below (Ki of 100 nM or above)) | E (a pKi value of 7 or below (Ki of 100 nM or above)) | A (a pIC50 value≥7.5 (IC50≤32 nM)) | B (a pKi value between 9 and 10 (Ki between 1 nM and 0.1 nM)) | A (a value of 3 or above) | – | – | – | – | –
4 | C=CC(=O)N1CC(C(C)Oc2nc(-c3ccc(O)cc3)nc3[nH]ncc23)C1 (stereo not drawn) [Compound 3-77] | – | – | – | – | – | A (a value of 3 or above) | > 100 nM | > 100 nM | > 100 nM | 31.6 to 200 nM | < 0.1 nM
5 | C=C(CN(C)C)C(=O)N1CC(COc2cc(-c3ccc(O)cc3)nc3[nH]ncc23)C1 [Compound 3-79] | – | – | – | – | – | A (a value of 3 or above) | > 100 nM | > 100 nM | > 100 nM | 31.6 to 200 nM | 0.1 to 1 nM
6 | C=CC(=O)N1CC(COc2cc(-c3ccc(O)c(OC)c3)cc3[nH]ncc23)C1 [Compound 3-83] | – | – | – | – | – | A (a value of 3 or above) | > 100 nM | > 100 nM | > 100 nM | < 31.6 nM | < 0.1 nM
7 | CN1CCC[C@@H]1/C=C/C(=O)N1CC(COc2cc(-c3ccc(O)cc3)cc3[nH]ncc23)C1 [Compound 3-85] | – | – | – | – | – | A (a value of 3 or above) | > 100 nM | 10 to 100 nM | > 100 nM | < 31.6 nM | < 0.1 nM
8 | C=CC(=O)N1CC(COc2cc(-c3ccc(O)c(Cl)c3)nc3[nH]ncc23)C1 [Compound 3-86] | – | – | – | – | – | A (a value of 3 or above) | > 100 nM | > 100 nM | > 100 nM | 31.6 to 200 nM | < 0.1 nM
9 | C=CC(=O)N1CC(COc2cc(-c3ccc(O)c(F)c3)nc3[nH]ncc23)C1 [Compound 3-87] | – | – | – | – | – | A (a value of 3 or above) | > 100 nM | > 100 nM | > 100 nM | 31.6 to 200 nM | 0.1 to 1 nM

From patent US10392368B2, “Pyrazolo and triazolo bicyclic compounds as JAK kinase inhibitors” (THERAVANCE BIOPHARMA R&D IP, LLC, priority 2017, dated 2019)
